The values that follow come from patent US20250361543A1, “Instrumentation for Rapid Antimicrobial Susceptibility Testing from Bodily Fluids and Cultures” (Georgia Tech Research Corporation, priority 2022, published 2025).

In the assay the test system is Escherichia coli. The assay is described as follows: Plate reader antimicrobial susceptibility test (MIC) directly from positive blood culture. It is filed as cell-based. The note with it: for MIC: Escherichia coli. The protocol:
The tests can also provide a low labor cost. Disclosed in this example are systems and methods for performing ASTs directly from positive blood cultures. De-identified hospital patient positive blood cultures were received within 8 hours of being flagged positive. ASTs were performed using various antimicrobial agents, namely seven antibiotics (ceftazidime, meropenem, tobramycin, levofloxacin, cefepime, gentamicin, and amikacin). The positive blood cultures were diluted 250-fold in cation-adjusted Mueller-Hinton Broth (CAMHB) media and 100 μL of this diluted sample was dispensed into each well of a 96-well microtiter plate, already containing 100 μL of varying concentration of one antibiotic. […] The sample-filled 96-well plate was sealed by sterile plastic film and incubated in a microtiter plate reader at 37° C. A temperature gradient of 0.5° C. was selected to prevent condensation on cover film. Each well was scanned every one hour from 400 to 895 nm with a 5 nm step starting from the time of incubation (0 hours) resulting in a total of nineteen spectra per well.
Relating to data analysis-spectra (400 to 895 nm) vs time were acquired from each well. Spectral principal components (PCs) were computed for all wells at each time point and those explaining at least 90% of the variance were calculated. […] Determining the lowest concentration for each antibiotic that inhibited growth based on these spectral overlaps determined the MIC for each antibiotic used.
The antibiotics concentrations are as in the plate layout and growth is measures as absorption at each excitation wavelength compares with the positive controls. Dark red indicates growth while bright red indicates no growth.

[1] abbreviates: 6 hours incubation at 37° C, positive blood culture diluted 500-fold in CAMHB, assay of FIG. 4, read-out: MIC (6 hours).
Setting [2] is: 8 hours incubation at 37° C, positive blood culture diluted 500-fold in CAMHB, assay of FIG. 4, read-out: MIC (8 hours).
[3] abbreviates: 10 hours incubation at 37° C, positive blood culture diluted 500-fold in CAMHB, assay of FIG. 4, read-out: MIC (10 hours).
The mark [4] stands for this setting: 18 hours incubation at 37° C, positive blood culture diluted 500-fold in CAMHB, assay of FIG. 4, read-out: MIC (18 hours).

In brackets after ≈: the same amount, converted by molar mass. Like-named read-outs stand apart in the source and are kept apart here.

One may read the MIC as the lowest concentration found to suppress growth. For `CC(C)(O/N=C(\C(=O)N[C@@H]1C(=O)N2C(C(=O)[O-])=C(C[n+]3ccccc3)CS[C@H]12)c1csc(N)n1)C(=O)O` [Ceftazidime, ceftazidime], the MIC turned out to be 0.0625 µg/mL (≈ 0.114 µM) under setting [1], 0.0625 µg/mL (≈ 0.114 µM) under setting [2], 0.0625 µg/mL (≈ 0.114 µM) under setting [3] and 0.0625 µg/mL (≈ 0.114 µM) under setting [4].

`NC[C@H]1O[C@H](O[C@H]2[C@H](O)[C@@H](O[C@H]3O[C@H](CO)[C@@H](O)[C@H](N)[C@H]3O)[C@H](N)C[C@@H]2N)[C@H](N)C[C@@H]1O` [Tobramycin, tobramycin]: the MIC reads like this: under setting [1], 1 µg/mL (≈ 2.14 µM); under setting [2], 1 µg/mL (≈ 2.14 µM); under setting [3], 1 µg/mL (≈ 2.14 µM); under setting [4], 1 µg/mL (≈ 2.14 µM).

`C[C@@H](O)[C@H]1C(=O)N2C(C(=O)O)=C(S[C@@H]3CN[C@H](C(=O)N(C)C)C3)[C@H](C)[C@H]12` [Meropenem, meropenem]: the minimal inhibitory concentration (MIC) under setting [1] was at most 0.0312 µg/mL, the MIC under setting [2] was at most 0.0312 µg/mL, the minimum inhibitory concentration (MIC) under setting [3] is at most 0.0312 µg/mL and the MIC under setting [4] was at most 0.0312 µg/mL.

`CO/N=C(\C(=O)N[C@@H]1C(=O)N2C(C(=O)[O-])=C(C[N+]3(C)CCCC3)CS[C@H]12)c1csc(N)n1` [Cefepime, cefepime]: the MIC is at most 0.0312 µg/mL (6 h, read-out: MIC (6 hours)); at most 0.0312 µg/mL (8 h, read-out: MIC (8 hours)); at most 0.0312 µg/mL (10 h, read-out: MIC (10 hours)); at most 0.0312 µg/mL (18 h, read-out: MIC (18 hours)).

As for `NCC[C@H](O)C(=O)N[C@@H]1C[C@H](N)[C@@H](O[C@H]2O[C@H](CN)[C@@H](O)[C@H](O)[C@H]2O)[C@H](O)[C@H]1O[C@H]1O[C@H](CO)[C@@H](O)[C@H](N)[C@H]1O` [Amikacin, amikacin], the MIC stood at 2 µg/mL (≈ 3.42 µM) under setting [1], 2 µg/mL (≈ 3.42 µM) under setting [2], 2 µg/mL (≈ 3.42 µM) under setting [3] and 2 µg/mL (≈ 3.42 µM) under setting [4].

Regarding gentamicin, where the note is “6 hours incubation at 37° C, positive blood culture diluted 500-fold in CAMHB, assay of FIG. 4”, the “MIC (6 hours)” value came to 1 µg/mL. Besides, the “MIC (8 hours)” value (8 hours incubation at 37° C, positive blood culture diluted 500-fold in CAMHB, assay of FIG. 4) amounted to 1 µg/mL. The “MIC (10 hours)” value (10 hours incubation at 37° C, positive blood culture diluted 500-fold in CAMHB, assay of FIG. 4) was determined as 1 µg/mL. Moreover, the “MIC (18 hours)” value (18 hours incubation at 37° C, positive blood culture diluted 500-fold in CAMHB, assay of FIG. 4) came to 1 µg/mL.

`C[C@H]1COc2c(N3CCN(C)CC3)c(F)cc3c(=O)c(C(=O)O)cn1c23` [Levofloxacin, levofloxacin]: the minimum inhibitory concentration (MIC) is at most 0.0312 µg/mL under setting [1], at most 0.0312 µg/mL under setting [2], at most 0.0312 µg/mL under setting [3] and at most 0.0312 µg/mL under setting [4].
